Consider two compounds from article PMC11558128 (Advanced Science, 2024).

Positions of bridges follow the written chain, without caps; N, C: chain ends. Residues, ends and D or L forms follow the SMILES beside them.

The target of data set [1] is T1, rKv4.2 D281A (Rattus norvegicus, UniProt Q63881, D281A).
T1 construct: expressed in transfected cells; host or cells: HEK293T
In words: Patch clamp of rKv4.2 mutant D281A. Conditions: mean ± SEM. Format: cell-based.

In data set [2] the test system is ICR mice. As to the kind of experiment: Forced swimming test. In kind it is in vivo, mouse. Conditions: 2 mg kg-1 i.p.; vs saline; n = 5, p = 0.8413. The method, then:
Forced Swimming Test: ICR mice (weight 18–20 g, 6–8 weeks, both sex) were subjected to forced swimming training for 8 min per day over a span of 4 days. […] On the 5th day, the remaining mice were randomly assigned to one of two groups: Saline (3 males and 2 females) and the 2 mg kg^−1 mGpTx1‐SA (3 males and 2 females). All groups received intraperitoneal administration and were allowed 20 min for the drug to take effect before behavioral tests commenced. Swimming time was recorded for a duration of 4 min within a 6‐minute timeframe following drug administration.

Data set [3] relates to C57BL/6 mice. In words: Open field test. Format: in vivo, mouse. Conditions: 2 mg kg-1 i.p.; 2 min; vs saline; n = 4, p = 0.2000. The method, then: Open Field Test: The C57BL/6 mice (weight 18–20 g, 6–8 weeks, both sex) were randomly assigned to one of two groups: Saline (2 males and 2 females) and 2 mg kg^−1 mGpTx1‐SA (2 males and 2 females). All mice received intraperitoneal administration of the respective substances and were allowed 20 min for the drugs to take effect. Following drug administration, the mice were individually placed in square transparent chambers (50 × 50 cm). They were allowed to explore freely under normal light. The movements and trajectories of the mice were recorded using video and computer systems over a 2‐minute period for subsequent analysis.

T1 sequence (Q63881 whole entry D281A): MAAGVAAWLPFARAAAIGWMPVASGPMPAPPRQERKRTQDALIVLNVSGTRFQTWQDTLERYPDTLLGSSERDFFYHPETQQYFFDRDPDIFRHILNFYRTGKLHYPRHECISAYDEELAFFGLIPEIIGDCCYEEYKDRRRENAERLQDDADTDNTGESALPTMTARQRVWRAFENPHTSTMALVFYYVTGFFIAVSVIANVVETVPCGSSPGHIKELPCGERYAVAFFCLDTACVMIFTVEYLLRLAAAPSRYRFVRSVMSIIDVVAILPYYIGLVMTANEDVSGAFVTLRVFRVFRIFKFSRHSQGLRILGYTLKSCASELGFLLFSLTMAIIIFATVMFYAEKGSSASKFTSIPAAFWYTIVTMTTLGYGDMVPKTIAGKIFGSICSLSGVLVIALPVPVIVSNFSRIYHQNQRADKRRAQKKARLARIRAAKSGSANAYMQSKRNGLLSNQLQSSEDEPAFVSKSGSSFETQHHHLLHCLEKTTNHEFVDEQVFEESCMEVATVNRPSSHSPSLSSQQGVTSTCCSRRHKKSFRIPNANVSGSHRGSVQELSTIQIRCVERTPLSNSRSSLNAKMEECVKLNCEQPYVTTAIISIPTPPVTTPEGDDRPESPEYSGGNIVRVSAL

On to `CC(C)C[C@H](NC(=O)[C@H](Cc1ccc(O)cc1)NC(=O)[C@@H](NC(=O)[C@H](CCCCN)NC(=O)[C@@H]1CSSC[C@@H]2NC(=O)[C@H](CCC(=O)O)NC(=O)[C@H](CC(N)=O)NC(=O)[C@H](CCCCN)NC(=O)CNC(=O)[C@@H]3CCCN3C(=O)[C@H]([C@@H](C)O)NC(=O)[C@@H]3CSSC[C@H](NC(=O)[C@H](C)NC(=O)[C@H](Cc4ccc(O)cc4)NC(=O)[C@H](CC(N)=O)NC(=O)[C@@H]4CCCN4C(=O)[C@H](CSSC[C@H](NC(=O)CN)C(=O)N[C@@H](CCCCN)C(=O)NCC(=O)N[C@@H](Cc4ccccc4)C(=O)NCC(=O)N[C@@H](CC(=O)O)C(=O)N[C@@H](CO)C(=O)N3)NC2=O)C(=O)N[C@@H](CO)C(=O)N[C@@H](CO)C(=O)N[C@@H](CCCCN)C(=O)N[C@@H](Cc2c[nH]cn2)C(=O)N[C@@H](CCCCN)C(=O)N[C@@H](Cc2c[nH]c3ccccc23)C(=O)N1)C(C)C)C(N)=O` [HNTX-III] (H-GCKGFGDSCTPGKNECCPNYACSSKHKWCKVYL-NH2; disulfide 2-17, 9-22, 16-29), for which the IC50 in data set [1] worked out at 214 ± 76 nM.

On to `CC[C@H](C)[C@@H]1NC(=O)[C@@H]2CSSC[C@@H]3NC(=O)[C@H](C(C)C)NC(=O)[C@H](CC(C)C)NC(=O)[C@H](CC(N)=O)NC(=O)[C@@H]4CCCN4C(=O)[C@H](CCCNC(=N)N)NC(=O)[C@H](CSSC[C@H](NC(=O)[C@@H](N)CC(=O)O)C(=O)N[C@@H](CC(C)C)C(=O)NCC(=O)N[C@@H](C)C(=O)N[C@@H](Cc4ccccc4)C(=O)N[C@@H](CCCNC(=N)N)C(=O)N[C@@H](CCCCN)C(=O)N2)NC(=O)[C@H](CSSC[C@@H](C(=O)N[C@@H](CCCCN)C(=O)N[C@@H](Cc2ccc(O)cc2)C(=O)N[C@H](C(=O)N[C@@H](Cc2ccccc2)C(N)=O)C(C)C)NC(=O)[C@H](Cc2c[nH]c4ccccc24)NC(=O)[C@H](CCCNC(=N)N)NC(=O)[C@H](Cc2c[nH]cn2)NC(=O)[C@H](C)NC(=O)[C@H](CO)NC(=O)[C@H](CO)NC3=O)NC(=O)[C@H](CCCCN)NC(=O)[C@H](CC(=O)O)NC(=O)[C@H](CC(N)=O)NC(=O)[C@H](CC(=O)O)NC(=O)[C@@H]2CCCN2C1=O` [mGpTx1-SA] (H-DCLGAFRKCIPDNDKCCRPNLVCSSAHRWCKYVF-NH2; disulfide 2-17, 9-23, 16-30), for which, in data set [2], the “time spent on swimming” value was “did not affect”. For the same compound, the “exploratory and locomotor behavior, open-field test” value in data set [3] was “did not influence significantly”.
